Laboratory results as given in PMC8053501 (Diabetes, Metabolic Syndrome and Obesity: Targets and …, 2021).
Where two headings read alike, the source gives them in different places.

Columns and labels:
[1] = in vivo; details: male, ICR, mouse, po; for Cmax / half-life: oral gavage; for half-life: t1/2, mouse
[2] = system: diabetes mellitus patients; assay: Acute kidney injury; type: in vivo, human; details: for Association with AKI, Unadjusted (95% CI) / Association with AKI, Adjusted (95% CI): metformin as reference; for Association with AKI, Adjusted (95% CI): multivariate; for Events During the 90 days (AKI): primary endpoint, first 90 days, patients above 55 years; for Total endpoint (AKI events): primary plus secondary endpoint; for Events at secondary end (AKI): secondary endpoint, after 90 days of hospital admission; for Total Percent (incidence rate of AKI at the end of the study): share of the 4966 total outcomes
[3] = normal mice, oral gavage, 3mg/kg
[4] = Endpoint Diagnosis with 1047 Outcome
[5] = Secondary Diagnosis with 3919 Outcomes

OC[C@H]1O[C@@H](c2ccc(Cl)c(Cc3ccc(O[C@H]4CCOC4)cc3)c2)[C@H](O)[C@@H](O)[C@@H]1O [Jardiance]
Tmax [1]: 1 h
Tmax ([1]; 3 mg/kg): 1 h
Cmax ([1]; 3 mg/kg, Kidney): 1740 ng/mL
Cmax ([1]; 3 mg/kg, Liver): 1150 ng/mL
Cmax ([1]; 3 mg/kg, Plasma): 412 ng/mL
half-life ([1]; 3 mg/kg, Kidney): 2.1 h
half-life ([1]; 3 mg/kg, Liver): 2.2 h
half-life ([1]; 3 mg/kg, Plasma): 1.8 h
Association with AKI, Unadjusted (95% CI) [2, 4]: 0.87 (0.69–1.12)
Association with AKI, Adjusted (95% CI) [2, 4]: 0.76 (0.58–1.18)
Association with AKI, Unadjusted (95% CI) [2, 5]: 0.83 (0.68–1.14)
Association with AKI, Adjusted (95% CI) [2, 5]: 0.85 (0.67–1.18)
Events During the 90 days (AKI) [2]: 57
Total endpoint (AKI events) [2]: 277
Events at secondary end (AKI) [2]: 220
Total Percent (incidence rate of AKI at the end of the study) [2]: 5.58%
Drug concentration, time course ([3]; Kidney, 0h): 0
Drug concentration, time course ([3]; Kidney, 3h): 1800
Drug concentration, time course ([3]; Kidney, 6h): 1200
Drug concentration, time course ([3]; Kidney, 9h): 550
Drug concentration, time course ([3]; Kidney, 12h): 100
Drug concentration, time course ([3]; Kidney, 15h): 0
Drug concentration, time course ([3]; Kidney, 18h): 0
Drug concentration, time course ([3]; Kidney, 21h): 0
Drug concentration, time course ([3]; Kidney, 24h): 0
Drug concentration, time course ([3]; Liver, 0h): 0
Drug concentration, time course ([3]; Liver, 3h): 1100
Drug concentration, time course ([3]; Liver, 6h): 850
Drug concentration, time course ([3]; Liver, 9h): 400
Drug concentration, time course ([3]; Liver, 12h): 50
Drug concentration, time course ([3]; Liver, 15h): 0
Drug concentration, time course ([3]; Liver, 18h): 0
Drug concentration, time course ([3]; Liver, 21h): 0
Drug concentration, time course ([3]; Liver, 24h): 0
Drug concentration, time course ([3]; Plasma, 0h): 0
Drug concentration, time course ([3]; Plasma, 3h): 500
Drug concentration, time course ([3]; Plasma, 6h): 450
Drug concentration, time course ([3]; Plasma, 9h): 200
Drug concentration, time course ([3]; Plasma, 12h): 0
Drug concentration, time course ([3]; Plasma, 15h): 0
Drug concentration, time course ([3]; Plasma, 18h): 0
Drug concentration, time course ([3]; Plasma, 21h): 0
Drug concentration, time course ([3]; Plasma, 24h): 0

CC#CCn1c(N2CCC[C@@H](N)C2)nc2c1c(=O)n(Cc1nc(C)c3ccccc3n1)c(=O)n2C [Linagliptin, linagliptin]
Tmax [1]: 1 h
Tmax ([1]; 3 mg/kg): 1 h
Cmax ([1]; 3 mg/kg, Kidney): 6440 ng/mL
Cmax ([1]; 3 mg/kg, Liver): 5050 ng/mL
Cmax ([1]; 3 mg/kg, Plasma): 578 ng/mL
half-life ([1]; 3 mg/kg, Kidney): 3.7 h
half-life ([1]; 3 mg/kg, Liver): 2.8 h
half-life ([1]; 3 mg/kg, Plasma): 2.6 h
Association with AKI, Unadjusted (95% CI) [2, 4]: 0.97 (0.68–1.32)
Association with AKI, Adjusted (95% CI) [2, 4]: 0.86 (0.72–1.46)
Association with AKI, Unadjusted (95% CI) [2, 5]: 0.87 (0.72–1.21)
Association with AKI, Adjusted (95% CI) [2, 5]: 1.23 (0.73–1.65)
Events During the 90 days (AKI) [2]: 56
Total endpoint (AKI events) [2]: 284
Events at secondary end (AKI) [2]: 228
Total Percent (incidence rate of AKI at the end of the study) [2]: 5.72%
Drug concentration, time course ([3]; Kidney, 0h): 0
Drug concentration, time course ([3]; Kidney, 3h): 18,500
Drug concentration, time course ([3]; Kidney, 6h): 12,800
Drug concentration, time course ([3]; Kidney, 9h): 9500
Drug concentration, time course ([3]; Kidney, 12h): 5400
Drug concentration, time course ([3]; Kidney, 15h): 2500
Drug concentration, time course ([3]; Kidney, 18h): 500
Drug concentration, time course ([3]; Kidney, 21h): 0
Drug concentration, time course ([3]; Kidney, 24h): 0
Drug concentration, time course ([3]; Liver, 0h): 0
Drug concentration, time course ([3]; Liver, 3h): 7500
Drug concentration, time course ([3]; Liver, 6h): 6000
Drug concentration, time course ([3]; Liver, 9h): 1200
Drug concentration, time course ([3]; Liver, 12h): 300
Drug concentration, time course ([3]; Liver, 15h): 50
Drug concentration, time course ([3]; Liver, 18h): 0
Drug concentration, time course ([3]; Liver, 21h): 0
Drug concentration, time course ([3]; Liver, 24h): 0
Drug concentration, time course ([3]; Plasma, 0h): 0
Drug concentration, time course ([3]; Plasma, 3h): 450
Drug concentration, time course ([3]; Plasma, 6h): 310
Drug concentration, time course ([3]; Plasma, 9h): 50
Drug concentration, time course ([3]; Plasma, 12h): 0
Drug concentration, time course ([3]; Plasma, 15h): 0
Drug concentration, time course ([3]; Plasma, 18h): 0
Drug concentration, time course ([3]; Plasma, 21h): 0
Drug concentration, time course ([3]; Plasma, 24h): 0

N#C[C@@H]1CCCN1C(=O)CNC12CC3CC(CC(O)(C3)C1)C2 [Vildagliptin, vildagliptin]
Tmax [1]: 0.5 h
Tmax ([1]; 3 mg/kg): 0.5 h
Cmax ([1]; 3 mg/kg, Kidney): 5870 ng/mL
Cmax ([1]; 3 mg/kg, Liver): 5030 ng/mL
Cmax ([1]; 3 mg/kg, Plasma): 765 ng/mL
Association with AKI, Unadjusted (95% CI) [2, 4]: 1.23 (0.97–1.32)
Association with AKI, Adjusted (95% CI) [2, 4]: 1.18 (0.92–1.35)
Association with AKI, Unadjusted (95% CI) [2, 5]: 1.20 (0.72–1.38)
Association with AKI, Adjusted (95% CI) [2, 5]: 1.07 (0.95–1.45)
Events During the 90 days (AKI) [2]: 79
Total endpoint (AKI events) [2]: 316
Events at secondary end (AKI) [2]: 237
Total Percent (incidence rate of AKI at the end of the study) [2]: 6.36%
Drug concentration, time course ([3]; Kidney, 0h): 0
Drug concentration, time course ([3]; Kidney, 3h): 4500
Drug concentration, time course ([3]; Kidney, 6h): 3950
Drug concentration, time course ([3]; Kidney, 9h): 1650
Drug concentration, time course ([3]; Kidney, 12h): 100
Drug concentration, time course ([3]; Kidney, 15h): 25
Drug concentration, time course ([3]; Kidney, 18h): 0
Drug concentration, time course ([3]; Kidney, 21h): 0
Drug concentration, time course ([3]; Kidney, 24h): 0
Drug concentration, time course ([3]; Liver, 0h): 0
Drug concentration, time course ([3]; Liver, 3h): 8300
Drug concentration, time course ([3]; Liver, 6h): 4800
Drug concentration, time course ([3]; Liver, 9h): 2900
Drug concentration, time course ([3]; Liver, 12h): 300
Drug concentration, time course ([3]; Liver, 15h): 50
Drug concentration, time course ([3]; Liver, 18h): 0
Drug concentration, time course ([3]; Liver, 21h): 0
Drug concentration, time course ([3]; Liver, 24h): 0
Drug concentration, time course ([3]; Plasma, 0h): 0
Drug concentration, time course ([3]; Plasma, 3h): 7500
Drug concentration, time course ([3]; Plasma, 6h): 3000
Drug concentration, time course ([3]; Plasma, 9h): 1200
Drug concentration, time course ([3]; Plasma, 12h): 600
Drug concentration, time course ([3]; Plasma, 15h): 200
Drug concentration, time course ([3]; Plasma, 18h): 0
Drug concentration, time course ([3]; Plasma, 21h): 0
Drug concentration, time course ([3]; Plasma, 24h): 0
